Experimental data published in patent publication US12383573B2, “Use of luteolin-7-O-glucoside or luteolin-7-O-glucuronide in preparation of medicine for eye injuries” (BEIJING CHENGYI INVESTMENT CO., LTD., priority 2019, dated 2025).

Key:
Type in all cases: cell-based
[1] = test system: human retinal pigment epithelial cells ARPE-19; test: Cytotoxicity on human retinal pigment epithelial cells ARPE-19 (MTT); details: ARPE-19, 12.5˜100 μmol/L, 24 h
Procedure: ARPE-19 cells (purchased from Guangzhou Jinnuo Biotechnology Co., Ltd., China) were seeded into RPMI-1640 low-glucose cell culture medium containing 10% fetal bovine serum and 1% dual-antibiotics (penicillin-streptomycin) (culture medium containing 2 g/L D-glucose, 0.3 g/L L-glutamine and 2 g/L sodium bicarbonate), and the medium was replaced once every 3 days for future use.
Cells at exponential growth phase were used, and 100 μl of complete medium was added to each well to reach a concentration of 1×10^4 cells/mL. Then the cells were cultured in a humidified atmosphere at 37° C. and 5% CO2 for 24 h. After the cells fully adhered, luteolin-7-O-glucoside and luteolin-7-O-glucuronide with final concentrations of 12.5 μmol/L, 25 μmol/L, 50 μmol/L, and 100 μmol/L were added respectively, and cultured for 24 h.
The cell viability was determined by the 3-(4,5-dimethyl-2-thiazolyl)-2,5-diphenyl-2-H-tetrazolium […] (MTT) method: 20 μl of 5 mg/ml MTT was added to each well, and the cells were cultured in a CO2 incubator for 4 h, with all operations shielded from light. […] The absorbance of ARPE-19 cells was measured with a microplate reader at 490 nm, and the cell survival rate was calculated as follows: cell survival rate=(OD value of experimental group−OD value of blank group)/(OD of control group−OD of blank group)×100%.

[2] = test system: human retinal pigment epithelial cells ARPE-19; test: Blue light-induced damage to A2E-pretreated ARPE-19 cells, cell survival (MTT); details: 12.5˜50 μmol/L
Procedure: ARPE-19 cells were seeded into RPMI-1640 low-glucose cell culture medium containing 10% fetal bovine serum and 1% dual-antibiotics (penicillin-streptomycin), and the medium was replaced once every 3 days for future use.
Cells at exponential growth phase were used, and cells at 500 μl/well were seeded to a 24-well cell culture plate at a concentration of 5×10^4 cells/mL, and cultured in a humidified atmosphere at 37° C. and 5% CO2. After the cells fully adhered, the medium was replaced with the DMEM culture medium containing 25 μmol/L N-retinylidene-N-retinyl ethanolamine (A2E) for 2 hours of culture. Then, the supernatant was discarded, and the cells were washed 3 times with PBS, added with the luteolin-7-O-glucoside and luteolin-7-O-glucuronide with final concentrations of 12.5 μmol/L, 25 μmol/L, and […] respectively for 6 h of continuous culture, and then placed in a blue light device (50W LED blue light board with a blue light intensity of 3230˜3540 Lux) for 4 h of irradiation. After the light irradiation, the cells were placed in a 37° C. and 5% CO2 incubator again and continued to incubate for 24 h. […] The OD values were measured with a multi-well microplate reader at 490 nm, and the cell survival rate was calculated as follows: cell survival rate=(OD value of experimental group−OD value of blank group)/(OD of control group−OD of blank group)×100%. […]

[3] = test system: human retinal pigment epithelial cells ARPE-19; test: Intracellular ROS content by DHE staining in blue light-damaged ARPE-19 cells; details: A2E + blue light, vs model group
Procedure: A single layer of ARPE-19 cells were seeded and cultured in a 24-well plate with a cell concentration of 5×10^4 cells/well. After treatment as described in Example 2, the cells were washed twice with PBS and reactive oxygen species (ROS) fluorescent probe dihydroethidium (DHE) staining solution with a concentration of 20 μmol/L was added, and the cells were incubated at 37° C. for 20 min. Then, the cells were washed twice with PBS to fully remove the DHE probe that had not entered the cell, and then imaging was performed under an inverted microscope with an excitation wavelength of 540 nm and an emission wavelength of 590 nm.

[4] = test system: human retinal pigment epithelial cells ARPE-19; test: Hoechst 33342 nuclear staining (apoptosis) in blue light-damaged ARPE-19 cells; details: A2E + blue light, vs model group
Procedure: The cells were seeded in a 24-well plate (5×10^4 cells/well), and after the treatment as previously described, the fix solution was added and incubated for 30 min. Then the cells were washed three times with PBS, added with live cell staining solution (Hoechst 33342) with a concentration of 20 μg/mL, and incubated for 15 min at room temperature shielded from light. After the cells were washed with PBS, imaging was performed under an inverted fluorescence microscope with an excitation wavelength of 365 nm and an emission wavelength of 460 nm.

Structure (SMILES): O=c1cc(-c2ccc(O)c(O)c2)oc2cc(O[C@@H]3O[C@H](CO)[C@@H](O)[C@H](O)[C@H]3O)cc(O)c12 [luteolin-7-O-glucoside]
- cytotoxicity on ARPE-19 (in words) [1]: no cytotoxicity
- concentration dependence of the cell survival rate (in words) [2]: concentration-dependent
- intracellular fluorescence intensity (ROS content, DHE staining) [3]: decreased significantly as the dose increased
- cell status / nuclear condensation (Hoechst 33342, apoptosis) [4]: the cell status had obviously improved

Structure (SMILES): O=C(O)[C@H]1O[C@@H](Oc2cc(O)c3c(=O)cc(-c4ccc(O)c(O)c4)oc3c2)[C@H](O)[C@@H](O)[C@@H]1O [luteolin-7-O-glucuronide]
- cytotoxicity on ARPE-19 (in words) [1]: no cytotoxicity
- concentration dependence of the cell survival rate (in words) [2]: concentration-dependent
